Numbers after ± are expanded uncertainties.
Conditions: 293.15 K; 101.33 kPa; Liquid; Vibrating tube method

Work on C[n+]1ccn(CCO)c1.F[B-](F)(F)F [1-(2-hydroxyethyl)-3-methylimidazolium tetrafluoroborate] yielded a mass density of 1330 ± 20 kg/m3.

For Cc1n(CCO)cc[n+]1C.F[B-](F)(F)F [1-(2-hydroxyethyl)-2,3-dimethylimidazolium tetrafluoroborate], the mass density was 1360 ± 20 kg/m3.

— the NIST ThermoML archive (doi:10.1021/je050455+)
